Laboratory results taken from US8324247B2, “Method for treating pulmonary arterial hypertension” (Ventrus Biosciences, Inc., priority 2009, dated 2012).

Tested on: acute hypoxia-induced pulmonary hypertension
Experiment: Acute hypoxia-induced pulmonary hypertension in rats (mean pulmonary arterial pressure)
Assay type: in vivo, rat
Description: Measurement of Pulmonary and Systemic Arterial Pressure
Male Sprague-Dawley rats were obtained from Charles River Breeding Laboratories (Wilmington, Mass.) at 9-10 wk of age. For pulmonary arterial pressure measurement, a closed-chest technique (1-4). Under ketamine (80 mg/kg) and xylazine (5 mg/kg) anesthesia, a small transverse cut was made in the proximal right external jugular vein through passed. The introducer was a blunted 7.5 cm, 19-gauge needle with the tip turned up 30 degrees. The Silastic catheter filled with heparinsaline solution was passed through the introducer and attached by a 25 gauge blunted needle to a pressure transducer (model CP-01, Century Technology, Inglewood, Calif.) coupled to a polygraph (model 7, Grass Instruments, Quincy, Mass.). After the introducer was placed in the right ventricular cavity, the tip was directed anteriorly. The catheter was then advanced into the pulmonary artery. Catheter position was identified by the pressure tracing. The introducer was slipped out over the catheter and removed after a typical pulmonary arterial pressure tracing was recorded. […] One day after catheterization, mean pulmonary arterial pressure (MPAP), mean systemic arterial pressure (MSAP) were recorded through the pulmonary and femora arterial catheters via transducers coupled to the polygraph. […]

SMILES: CN1CCCC[C@H]1CCc1ccccc1NC(=O)/C=C/c1ccccc1 [Iferanserin, S-2′-[2-(1-methyl-2-piperidyl)ethyl] cinnamanilide]
- effect on acute hypoxia-induced pulmonary hypertension (adult male Sprague-Dawley rats, 3 and 10 mg/kg p.o., given 45 min before normobaric hypoxia (10% O2) for 90 min): partially inhibited
- dose dependence of the effect on acute hypoxia-induced pulmonary hypertension (adult rats, within the range of 3-10 mg/kg, p.o.): no dose-dependent response
